Changes are numbered by the printed parent chain. Where no end group is shown, it is not given here.

Experimental findings from paper PMC12738692, “Identification, characterization, and structure-activity relationship of the ASIC3-selective peptide WRPRFa” (Communications Chemistry, 2025) are described below.

One experiment has as its target T1, human ASIC3 (Homo sapiens, UniProt Q9UHC3).
T1 construct: CHO cells stably expressing human ASIC3 (NM_004769.1)
T1 sequence (Q9UHC3 1-531): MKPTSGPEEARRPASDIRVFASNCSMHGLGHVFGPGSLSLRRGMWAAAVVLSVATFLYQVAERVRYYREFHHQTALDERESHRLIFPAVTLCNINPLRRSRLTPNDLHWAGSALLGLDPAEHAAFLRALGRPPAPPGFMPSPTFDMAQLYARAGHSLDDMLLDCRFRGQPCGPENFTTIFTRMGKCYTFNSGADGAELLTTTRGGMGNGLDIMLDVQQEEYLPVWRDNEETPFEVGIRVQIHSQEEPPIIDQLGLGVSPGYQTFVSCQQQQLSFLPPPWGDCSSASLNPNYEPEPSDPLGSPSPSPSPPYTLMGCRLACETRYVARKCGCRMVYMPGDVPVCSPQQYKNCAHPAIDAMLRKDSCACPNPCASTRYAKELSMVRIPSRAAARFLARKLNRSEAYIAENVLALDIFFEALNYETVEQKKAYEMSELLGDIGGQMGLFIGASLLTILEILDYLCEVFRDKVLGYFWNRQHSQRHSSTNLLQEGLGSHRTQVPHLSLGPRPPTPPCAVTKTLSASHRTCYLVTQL
Kind of experiment: QPatch II peptide concentration-response (I3s/Ipk). The settings on record: WT ASIC3, QPatch II, read-out: EC50 (95% CI). The experiment is classed as cell-based. On the procedure:
RFamide peptide activity on ASIC3 was measured on the QPatch II platform (Sophion, Ballerup, Denmark) using either a CHO or HEK stable cell line and analyzed with Sophion Analyzer software (version 5.2). Prior to recording, the cells were washed twice in PBS (Gibco, Paisley, UK) and treated with Detachin (Genlantis, San Diego) for 3 min, then resuspended in their respective growth media without serum for a concentration of 2 × 10^6 cells/ml. A minimum of 5 mL of cells was added to the QStirrer, which was placed on the deck of the QPatch II and allowed to incubate at room temperature for a minimum of 20 min.
The bath solution contained 135 mM NaCl, 5 mM KCl, 4.8 mM CaCl2, 1 mM MgCl2, 10 mM HEPES, 10 mM MES, and 10 mM glucose adjusted to pH 7.4 with NaOH. The intracellular solution contained 65 mM CsF, 65 mM CsCl, 10 mM HEPES, 5 mM EGTA, 1 mM MgCl2, adjusted to pH 7.4 with CsOH. Cells were held at -60 mV and ASIC currents were evoked with 3 s applications of pH 6.3 buffer. Peptides were preincubated for at least 2 min. The extracellular solution was changed by dispensing 5 µL of buffer through the ~1.7 µL recording chamber, with a solution switch time of 100 ms, that exchanges 99% of the solution. Signals were acquired at 1 kHz and low-pass filtered at 300 Hz. Experiments performed on QPatch II are specifically indicated in the text.

The next experiment addresses T2, ASIC3 E78Q (Homo sapiens, UniProt Q9UHC3, E78Q).
T2 construct: human ASIC3 (NM_004769.4); P2A-mCherry reporter (C, cleaved yes); expressed in transfected cells; host or cells: CHO cells (85050302, Sigma), transient transfection
T2 sequence (Q9UHC3 1-531 E78Q): T1 sequence (Q9UHC3 1-531) with E78Q
Kind of experiment: MPC peptide activity on ASIC3 E78Q mutant (I3s/Ipk, peak current, double mutant cycle). In kind it is cell-based. The settings on record: read-out: EC50 (95% CI).

Protocol for ASIC3 E78Q: We individually mutated the four glutamates to glutamine to remove their charge but maintain the side chain structure (Fig. 4C). We tested each mutant by incubating HEK cells stably expressing ASIC3 or CHO cells transfected with mutant ASIC3 with 30 µM WRPRFa before a pH 6.3 acid stimulus.
We then asked which of the two WRPRFa arginines interacts with the E78/E421 pair. […] To this end, we used a double mutant cycle approach to identify coupling between site 2 or site 4 of WRPRFa with the E78/E421 pair. In this case, the double mutant cycle experiment compared the change in potency caused by single mutations in either WRPRFa or ASIC3 against the change in potency caused by simultaneous mutations in WRPRFa and ASIC3. A coupling coefficient (Ω) can be calculated by dividing the product of the WT/WRPRFa potency and double mutant potency by the product of the two single mutant potencies.
The numbering of ASIC3 amino acids is based on RefSeq NP_004760.1. Plasmids were transfected into CHO cells using Lipofectamine 3000 (Thermo) according to the manufacturer’s protocol. Cells were used for patch-clamp recordings 24–48 h after transfection.
CHO and HEK cells were tested in the whole-cell configuration on MPC platforms using an Axopatch 200B amplifier (Axon Instruments, San Jose, CA) and a Digidata 1322A or Digidata 1440A digitizer (Axon) using pClamp 9.2 or 10.7 (Molecular Devices, San Jose, CA), respectively. When testing transfected cells, red fluorescence from the cleaved mCherry reporter was used to identify cells expressing ASIC3, ASIC131, or ASIC313. For cells expressing transfected ASIC1a or ASIC2a, the green signal from the cleaved eGFP reporter was used. All electrophysiology data were analyzed with Clampfit 11.1 (Molecular Devices).
For peptide concentration-response curves, Bottom was set to 0 and Top was constrained to ≤ 1 for peptides that approached plateau phase or where I3s/Ipk reached 1. […] For activation- or desensitization-pH curves, Bottom was set to 0 and Top constrained to 1.

Consider WRPRF-NH2 [WRPRFa], for which the EC50 at human ASIC3 was 6.31 µM; on ASIC3 E78Q it was 0.206 µM.
